The results in this text go back to paper PMC9151520 (Archives of Toxicology, 2022).

The structures appear in SMILES notation. Read-outs that look alike come from different tables or passages of the source.

Data set [1] deals with p53 signaling (p53RE-bla HCT-116 cells). Put plainly: cells. The class given is cell-based.
Data set [2] has the same test system. Put plainly: cells. Format: cell-based. To be noted: for Emax: HCT-116, read-out: efficacy.
Data set [3] shares this test system. Put plainly: cells. The settings on record: Homo sapiens.
Another data set can be described thus: in vitro. The settings on record: male, Sprague Dawley, rat, microsomes, pH 7.4.
In data set [4] the test system is p53 signaling (p53RE-bla HCT-116 cells). Put plainly: cells. The class given is cell-based. The source holds these as a separate data set.
For data set [5] the following is noted: rat.
Data set [6] has as its system p53 signaling (p53RE-bla HCT-116 cells).
Data set [7] shares this test system. Put plainly: cells. To be noted: Homo sapiens, HCT-116, read-out: p53 activation EC50, HLM.
Data set [8] has the same test system. To be noted: for EC50: read-out: p53 activation EC50.
Setting [9] is: HCT-116, read-out: p53 activation EC50, cherry pick confirmation.
Setting [10] is: HCT-116, read-out: p53 activation EC50, primary screening.
[11] abbreviates: HCT-116, read-out: p53 activation efficacy, cherry pick confirmation.
[12] abbreviates: HCT-116, read-out: p53 activation efficacy, primary screening.

`Cc1cc(=O)oc2cc(O)ccc12` [4-Methylumbelliferone]: in data set [1], the “EC50, p53 activation, primary screening” value was “inactive”. Moreover, in data set [1], the “Efficacy, p53 activation, primary screening” value was “inactive”. In addition, the EC50 was 18.2 µM in data set [1] (Homo sapiens, HCT-116, read-out: EC50, p53 activation, cherry pick confirmation); 24.2 µM in data set [2] (Homo sapiens, HCT-116); 25.2 µM in [3] (HCT-116); 25.9 µM in [3] (HCT-116, read-out: EC50, p53 activation, cherry pick confirmation); “Inactive” in [4]. The Emax in data set [1] (Homo sapiens, HCT-116, read-out: Efficacy, p53 activation, cherry pick confirmation) was 30%; in data set [2] (Homo sapiens) it was 114%; in [3] (HCT-116, read-out: Efficacy, p53 activation, cherry pick confirmation), 89.9%; in [3] (HCT-116, read-out: efficacy), 99.5%. The half-life in the data set “in vitro” worked out at 19.1 min. Also, in data set [5], the “Depletion after 16 h of incubation with cells” value (shortened to “Depletion after 16 h”) is listed as 46.53 ± 5.89%. Also, the “EC50, viability, cherry pick confirmation” value in the data set with p53RE-bla HCT-116 cells is “inactive”. For the same molecule, the “EC50, viability, primary screening” value with p53RE-bla HCT-116 cells was “inactive”. In the data set with p53RE-bla HCT-116 cells, the “Efficacy, viability, cherry pick confirmation” value is “inactive”. In addition, in the data set with p53RE-bla HCT-116 cells, the “Efficacy, viability, primary screening” value was “inactive”. Moreover, the “EC50, p53 activation, cherry pick confirmation” value in data set [6] is “inactive”. Moreover, the “Efficacy, p53 activation, cherry pick confirmation” value in data set [6] was “inactive”.

`COc1c2ccoc2cc2oc(=O)ccc12` [5-Methoxypsoralen]: the “p53 activation EC50, cherry pick confirmation” value in [1] and in [6] was “inactive” in each case. For the same molecule, the “p53 activation EC50, primary screening” value in [1] and in data set [6] was “inactive” each time. In addition, the “p53 activation efficacy, cherry pick confirmation” value in data set [1] and in data set [6] was “inactive” in each case. Further, the “p53 activation efficacy, primary screening” value in data set [1] and in [6] was “inactive” in each case. The EC50 in [2] (Homo sapiens, HCT-116) is 13.2 µM; in [3] (HCT-116), 16.4 µM; in [3] (setting [9]) it was 9.45 µM; in data set [3] (setting [10]), 20.9 µM; in data set [4], “Inactive”. Besides, the Emax in data set [2] (Homo sapiens) was 75%; in data set [3] (HCT-116, read-out: efficacy), 72.3%; in data set [3] (setting [11]), 62.5%; in data set [3] (setting [12]), 81.3%. In “in vitro”, the half-life was 21.1 ± 3.72 min. The “Depletion after 16 h” value in data set [5] is given as 45.7 ± 3.67%. Also, the “Viability EC50, cherry pick confirmation” value in the data set on p53RE-bla HCT-116 cells is “inactive”. Also, in the data set with p53RE-bla HCT-116 cells, the “Viability EC50, primary screening” value was “inactive”. Besides, the “Viability efficacy, cherry pick confirmation” value in the data set with p53RE-bla HCT-116 cells is “inactive”. For the same molecule, the “Viability efficacy, primary screening” value with p53RE-bla HCT-116 cells was “inactive”.

`OCCN(CCO)c1nc(N2CCCCC2)c2nc(N(CCO)CCO)nc(N3CCCCC3)c2n1` [Dipyridamole, reference compound]: the EC50 in data set [2] (Homo sapiens, HCT-116) stood at 5.28 µM; in data set [4] (Homo sapiens, HCT-116, 0.5 h), 4.36 µM. Moreover, in “in vitro”, the half-life was 7.32 ± 0.59 min. Also, the Emax in data set [4] (Homo sapiens, HCT-116, read-out: efficacy) is 174%.

Turning to `CCOP(=S)(NC(C)C)Oc1ccccc1C(=O)OC(C)C` (stereo not drawn) [Isofenphos], the “p53 activation EC50, cherry pick confirmation” value in [1] and in [6] was “inactive” each time. Also, the “p53 activation EC50, primary screening” value in data set [1] is “inactive”. Moreover, the “p53 activation efficacy, cherry pick confirmation” value in data set [1] and in data set [6] was “inactive” throughout. In addition, the “p53 activation efficacy, primary screening” value in data set [1] is “inactive”. Also, the EC50 is 0.81 µM in data set [2] (Homo sapiens, HCT-116); 0.75 µM in data set [3] (HCT-116); 0.777 µM in [3] (setting [9]); “Inactive” in data set [4]. The Emax in data set [2] (Homo sapiens) is 54.3%; in [3] (HCT-116, read-out: efficacy), 42.6%; in data set [3] (setting [11]), 42.6%. In “in vitro”, this molecule displayed a half-life of 1.25 ± 0.47 min. Further, the “Depletion after 16 h” value in [5] was 88.45 ± 1.49%. The “Viability EC50, cherry pick confirmation” value in the data set on p53RE-bla HCT-116 cells was “inactive”. In addition, the “Viability EC50, primary screening” value in the data set with p53RE-bla HCT-116 cells is “inactive”. Moreover, the “Viability efficacy, cherry pick confirmation” value in the data set on p53RE-bla HCT-116 cells is “inactive”. Further, the “Viability efficacy, primary screening” value in the data set with p53RE-bla HCT-116 cells was “inactive”.

In the case of `CCOP(=S)(OCC)Oc1cc(-c2ccccc2)on1` [Isoxathion], in [1], the “p53 activation EC50, No MS” value was “inactive” and the “p53 activation Efficacy, No MS” value is “inactive”. For the same molecule, in [2] (Homo sapiens, HCT-116), a half-maximal response (EC50) required 9.77 µM. The molecule further registered an EC50 in [3] (HCT-116) of 8.62 µM. For the same molecule, the Emax in data set [3] (HCT-116, read-out: efficacy) was 46%. Further, the half-life in “in vitro” came out at 2.77 ± 0.25 min. In data set [4] (Homo sapiens, HCT-116, 0.5 h), the EC50 worked out at 27.5 µM. Besides, the “Depletion after 16 h” value in data set [5] was 94.65 ± 0.45%. Also, in the data set on p53RE-bla HCT-116 cells, the “Viability EC50, HLM” value was “inactive”; the “Viability EC50, No MS” value was “inactive”; the “Viability EC50, RLM” value was “inactive”; the “Viability Efficacy, HLM” value is “inactive”. Moreover, in the data set on p53RE-bla HCT-116 cells, the “Viability Efficacy, No MS” value is “inactive” and the “Viability Efficacy, RLM” value was “inactive”. Moreover, the EC50 in data set [7] was found to be 4.45 µM. Further, the “p53 activation EC50, HLM” value in data set [6] was “inactive”.

With `CCSC(=O)N1CCCCCC1` [Molinate], the “p53 activation EC50, cherry pick confirmation” value in data set [1] and in [6] was “inactive” throughout. Further, the “p53 activation EC50, primary screening” value in data set [1] and in [6] was “inactive” in each case. The “p53 activation efficacy, cherry pick confirmation” value in data set [1] and in data set [6] was “inactive” throughout. The “p53 activation efficacy, primary screening” value in data set [1] and in [6] was “inactive” throughout. The EC50 in data set [2] (Homo sapiens, HCT-116) was 0.3 µM; in [3] (HCT-116), 0.35 µM; in data set [3] (setting [9]), 0.355 µM; in [3] (setting [10]) it was 1.85 µM; in data set [4], “Inactive”. Besides, the Emax is 44.1% in data set [2] (Homo sapiens); 40.5% in data set [3] (HCT-116, read-out: efficacy); 39.9% in [3] (setting [11]); 45.3% in data set [3] (setting [12]). Moreover, the half-life in “in vitro” was 12 ± 0.18 min. Moreover, the “Depletion after 16 h” value in [5] is on record as 97.58 ± 0.19%. Further, in the data set with p53RE-bla HCT-116 cells, the “Viability EC50, cherry pick confirmation” value was “inactive”. Besides, the “Viability EC50, primary screening” value in the data set on p53RE-bla HCT-116 cells was “inactive”. In addition, in the data set on p53RE-bla HCT-116 cells, the “Viability efficacy, cherry pick confirmation” value was “inactive”. Also, the “Viability efficacy, primary screening” value in the data set on p53RE-bla HCT-116 cells was “inactive”.

For the molecule `CCOP(=S)(OCC)Oc1cnc2ccccc2n1` [Quinalphos], in data set [1], the “p53 activation EC50, cherry pick confirmation” value is “inactive”; the “p53 activation EC50, primary screening” value was “inactive”; the “p53 activation efficacy, cherry pick confirmation” value is “inactive”; the “p53 activation efficacy, primary screening” value was “inactive”. Further, the EC50 entry in data set [2] is listed as “Inactive”. In data set [3] (HCT-116), this molecule displayed an EC50 of 9.46 µM. For the same molecule, the Emax in data set [3] (HCT-116, read-out: efficacy) is 32.7%. Further, in data set [3] (setting [9]), the EC50 stood at 7.65 µM. For the same molecule, in [3] (setting [11]), the Emax was 34.3%. In “in vitro”, this molecule registered a half-life of 2.49 ± 0.04 min. For the same molecule, the EC50 entry in data set [4] is recorded as “Inactive”. Moreover, the “Depletion after 16 h” value in data set [5] is recorded as 96.66 ± 0.83%. Besides, in the data set with p53RE-bla HCT-116 cells, the “Viability EC50, cherry pick confirmation” value is “inactive”; the “Viability EC50, primary screening” value is “inactive”; the “Viability efficacy, cherry pick confirmation” value was “inactive”; the “Viability efficacy, primary screening” value was “inactive”. Further, in [6], the “p53 activation EC50, cherry pick confirmation” value was “inactive” and the “p53 activation efficacy, cherry pick confirmation” value was “inactive”.

As for `CCOP(=S)(Oc1cnc(C(C)(C)C)nc1)OC(C)C` (stereo not drawn) [Tebupirimfos], the “p53 activation EC50” value in [1] and in data set [6] was “inactive” throughout. The p53 activation efficacy result in data set [1] is “inactive”; in data set [8], 42.005. For the same molecule, the EC50 was 1.32 µM in data set [2] (Homo sapiens, HCT-116); 1.23 µM in [3] (HCT-116); 2.17 µM in [4] (Homo sapiens, HCT-116, 0.5 h); 1.63 µM in data set [8]. In data set [3] (HCT-116, read-out: efficacy), the Emax is 43.4%. For the same molecule, the half-life in the data set “in vitro” is 3.59 ± 0.08 min. Besides, the “Depletion after 16 h” value in data set [5] is on record as 94.85 ± 0.13%. Moreover, in the data set with p53RE-bla HCT-116 cells, the “Viability EC50” value is “inactive”. The Viability efficacy entry in the data set with p53RE-bla HCT-116 cells is “inactive”.

As for `CCN(CC)C(=O)SCc1ccc(Cl)cc1` [Thiobencarb], the “p53 activation EC50” value in data set [1] and in data set [6] was “inactive” each time. Also, the p53 activation efficacy entry in data set [1] is “inactive”; in data set [8] it was 51.3593. The EC50 in data set [2] (Homo sapiens, HCT-116) worked out at 1.84 µM; in data set [3] (HCT-116) it was 5.52 µM; in [4] (Homo sapiens, HCT-116, 0.5 h) it was 1.68 µM; in data set [8] it was 1.63 µM. Also, the Emax in [3] (HCT-116, read-out: efficacy) is 71.8%. Further, the half-life in the data set “in vitro” was determined as 1.48 ± 0.54 min. The “Depletion after 16 h” value in [5] amounted to 98.6 ± 0.04%. Besides, the “Viability EC50” value with p53RE-bla HCT-116 cells is “inactive”. In the data set on p53RE-bla HCT-116 cells, the Viability efficacy entry is “inactive”.

In the case of `Cc1cc(=O)n(-c2ccccc2)n1C` [antipyrine, reference compound], the half-life in the data set “in vitro” was > 120 min.

In the case of `O=C1CC2(CCCC2)CC(=O)N1CCCCN1CCN(c2ncccn2)CC1` [buspirone, reference compound], in the data set “in vitro”, the half-life is 7.2 ± 2.3 min.
